One test concerns the target T1, LmrR A92Q (Lactococcus cremoris, UniProt A2RI36, A92Q).
T1 sequence (A2RI36 1-116 A92Q): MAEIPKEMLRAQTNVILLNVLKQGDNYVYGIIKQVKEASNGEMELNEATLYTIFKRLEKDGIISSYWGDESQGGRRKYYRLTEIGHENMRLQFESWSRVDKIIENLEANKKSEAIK
The test is described as follows: binding affinity.

The target in another test is T2, LmrR_A92E (Lactococcus cremoris, UniProt A2RI36, A92E).
T2 sequence (A2RI36 1-116 A92E): T1 sequence (A2RI36 1-116 A92Q) with Q92E
The test is described as follows: binding affinity.

Residue numbers refer to the chain shown, from its start.

The source of these data is PMC7574625 (ACS Catalysis, 2020).

For `[Cu+2].c1cnc2c(c1)ccc1cccnc12` [Cu(II)-phen], the equilibrium dissociation constant (Kd) was 103 ± 41 nM at LmrR A92Q and 65 ± 19 nM at LmrR_A92E.

As a reminder, the Kd is a measure of binding affinity in units of concentration. A high value points to lower affinity.
